# Earlier results, collected in US7300768B2 (Saladax Biomedical Inc., priority 2004, dated 2007).
# Settings: imatinib and its salts; Gleevec package insert, Pindolia et al.
structure (smiles),measurement,value
Cc1ccc(NC(=O)c2ccc(CN3CCN(C)CC3)cc2)cc1Nc1nccc(-c2cccnc2)n1 [imatinib],degree of intra- and inter-individual pharmacokinetic variability,four fold
